{"source": "patent US20100125067A1", "about": "“SULFONAMIDE INHIBITORS OF CARBONIC ANHYDRASE II” (AUSPEX PHARMACEUTICALS, INC., priority 2008, published 2010)", "origin": "cited, not measured here", "key": {"[1]": {"molecular_target": "carbonic anhydrase I (Homo sapiens, UniProt P00915)", "sequence (P00915 whole entry, species assumed)": "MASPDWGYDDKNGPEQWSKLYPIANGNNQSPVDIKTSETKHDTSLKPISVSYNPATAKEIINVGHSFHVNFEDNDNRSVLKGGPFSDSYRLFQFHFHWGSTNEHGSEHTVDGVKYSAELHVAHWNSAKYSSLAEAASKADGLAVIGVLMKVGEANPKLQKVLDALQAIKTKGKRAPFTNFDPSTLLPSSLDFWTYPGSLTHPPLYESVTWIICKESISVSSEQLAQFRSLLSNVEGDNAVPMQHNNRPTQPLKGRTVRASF", "details": "as compared to the parent compound dorzolamide"}, "[2]": {"molecular_target": "carbonic anhydrase II (Homo sapiens, UniProt P00918)", "details": "as compared to the parent compound dorzolamide"}}}
{"molecule": "CC1CC(N)c2cc(S(N)(=O)=O)sc2S1(=O)=O", "note": "(centres unmarked) [N-de-ethylated metabolite]", "values": [{"measurement": "potency as inhibitor of carbonic anhydrase I", "setting": "[1]", "value": "more potent inhibitor"}, {"measurement": "potency as inhibitor of carbonic anhydrase II", "setting": "[2]", "value": "less potent inhibitor"}]}
